Measurements from a melting point compilation (Tetko et al.; mined from patent text by program, amines drawn as free bases though some values may be those of a salt).

melting point	SMILES
215 to 219 °C	COC(=O)c1ccc(-c2nc3c(O)cccc3s2)cc1
140 °C	CCONC(=O)c1c(Cl)ccc2cc(Cl)cnc12
138 to 140 °C	COc1cc2c(Nc3ccc(Cl)cc3F)ncnc2cc1OCCCOc1ccncc1
78.2 to 79 °C	CCOc1ccc(-c2nc(CCC(O)c3ccccc3OC)cs2)cc1OCC (stereo not drawn)
150 to 151 °C	CC1(C)OC[C@H](Cc2ccccc2)N1C(=O)Cn1cc(-c2ccc(-c3ccccc3)cc2)cn1
114 to 115 °C	CC(=O)N(C(C)=O)c1ccccc1Cn1[nH]c2ccccc2c1=O
281 to 282 °C	CC(=O)Nc1cnc(-c2ccccc2)[nH]c1=O
80 to 83 °C	CC1(CC(=O)O)CCc2ccc3ccccc3c2C1=O (stereo not drawn)
157 to 160 °C	O=C(O)c1cc(-c2ccc3c(c2)CCO3)nn(CCCc2ccc(Cl)cc2)c1=O
217 to 218 °C	O=c1nc(-c2cccc(S(=O)(=O)Cc3ccccc3)n2)sc2ccccc12
162 to 164 °C	Cc1nc(N2CCCC(Cc3ccccc3)C2=O)sc1C(=O)NCc1ccccc1 (stereo not drawn)
70 to 88 °C	CCCN(CCC)CCc1ccc(OCc2ccccc2)c(NC(N)=O)c1
168 to 170 °C	Cc1c(CC(=O)O)c2cc(OCc3ccc4ccccc4c3)ccc2n1Cc1ccc(Cl)cc1
166 °C	CC(C)(C)c1ccc(C(O)(c2ccccc2)c2ncc[nH]2)cc1 (stereo not drawn)
126 °C	Cc1ccccc1OCCN1CCC(CNc2nc3ccccc3s2)CC1
133 °C	CCOC(OCC)C(O)(Cc1c(NC(=O)C(C)(C)C)cnc(Cl)c1C)c1ccccc1 (stereo not drawn)
175 °C	CCCCOc1ccc(C(=O)c2cccc(C(=O)O)c2)c(O)c1
110 to 112 °C	CCCc1nc2c(C)ccnc2n1Cc1ccc2[nH]ccc2c1

melting point	SMILES
228 to 232 °C	O=c1[nH]c2ccccc2cc1-c1csc(N(Cc2ccccc2)S(=O)(=O)c2ccccc2)n1
138 °C	O=Cc1ccc(OCCN2C(=O)c3ccccc3C2=O)cc1
160 to 161 °C	COC(=O)c1ccc(Cc2cn(C)c3ccc(CCNC(=O)N4CCOCC4)cc23)c(OC)c1
55 °C	COC(=O)CCNC(=O)C1CCCN1C(=O)OCc1ccccc1 (stereo not drawn)
183 to 185 °C	Cc1cc(C)cc(NC(=O)Cc2ccc(O)cc2)c1
89 to 90 °C	O=C(O)C1Cc2c([nH]c3ccccc23)CN1C(=S)SCCc1ccccc1 (stereo not drawn)
111 to 113 °C	CCCCCS(=O)(=O)NC(=O)CCc1ccc(OCC(=O)N(CC)CC)cc1Oc1ncc(C(F)(F)F)cc1Cl
89.9 °C	CCCCCCCCC(SCCCCCC)C(=O)Nc1c([N+](=O)[O-])ccc2ncccc12 (stereo not drawn)
235 °C	COc1ccc(S(=O)(=O)C2(C(=O)O)CCN(CCOc3ccccc3)CC2)cc1
111 °C	CCc1ccc(C(C)=O)c(NC(C#N)c2c(Cl)cccc2Cl)c1 (stereo not drawn)
100 to 107 °C	C[C@@H](n1cnc2cc(NCc3ccccc3)ccc2c1=O)[C@](O)(Cn1cncn1)c1ccc(F)cc1F
99 to 101 °C	CC(C)c1cc(OCCCC(=O)OCc2ccccc2)cc2c1C(=O)N(COc1cc(C(F)(F)F)nn1-c1ccccc1)S2(=O)=O
61 to 62 °C	c1ccc(Cc2nc(COc3ccc(CCCn4ccnc4)cc3)co2)cc1
93 to 99 °C	CCOC(=O)CC1(O)c2ccccc2C=Cc2ccccc21
210 °C	CC1C(CCc2ccccc2)SC2=CC=NC3=CC=CC(c4ccccc4)C321 (stereo not drawn)
214 to 216 °C	CCCCc1nc2c(N)nc3cc(-c4ccccc4)ccc3c2n1CCCS(C)(=O)=O
120 to 121 °C	CCOC(=O)CCCCN1CCc2ccc(NS(=O)(=O)c3ccccc3)cc2C1
167 to 168 °C	NC(=O)Nc1ccc(OC(F)C(F)(F)F)cc1 (stereo not drawn)

Further lines, the molecule ahead of its results:

SMILES	melting point
Cc1nn(CC(=O)c2ccc(Cl)cc2)c(=O)n1-c1ccc(N2CCN(c3ccc(O)cc3)CC2)cc1	252 °C
C(=NC1CN2CCC1CC2)c1ccc(-c2ccccc2)cc1 (stereo not drawn)	82 to 84 °C
Cn1cc(-c2nc3c(N[C@H]4[C@@H](C(N)=O)[C@@H]5C=C[C@H]4C5)c(Br)cnc3[nH]2)cn1	255 to 258 °C
COc1ccc(C(SC)c2ccc(OC)cc2)cc1	62 to 63 °C
Nc1cc(C(F)(F)F)cc([N+](=O)[O-])c1N	121 to 123 °C
Clc1ccc2c(c1)N(CC1CN3CCC1CC3)c1ccccc1S2 (stereo not drawn)	122 °C
CC(CC(C(=O)N(C)C)(c1ccccc1)c1ccccc1)N1CCC(NCc2ccccc2)C(O)C1 (stereo not drawn)	134 °C
Cc1nn(C)c(CBr)c1Oc1cc(Cl)cc(C#N)c1	76 to 78 °C
O=C(O)c1ncsc1S	156 to 157 °C
Cn1nc(N)c2sc3ncccc3c21	194 to 196 °C
Cc1nc(N)c2nc(C)n(CCNS(C)(=O)=O)c2c1C	> 250 °C
CCOC(=O)Nc1cc([N+](=O)[O-])ccc1F	90 to 92 °C
COC(=O)C1=NNC(C)=C(C(=O)OC)C1c1ccccc1C(F)(F)F (stereo not drawn)	205 °C
CSc1ccc(-c2nc(SC)c(C(=O)O)c(=O)n2-c2ccc(C)cc2)cc1	173 to 175 °C
CNC(=O)c1cc2n(n1)-c1ccc(Cl)cc1C(c1ccccc1)=NC2	170 to 172 °C
Fc1cccc(C(F)(F)F)c1N(CC1CC1)C1=NCCN1	126 to 127 °C
CC(C)NC(=S)n1ccc2ccc(Cl)cc21	92 to 93 °C
O=C(OCCCO)c1cc([N+](=O)[O-])cc([N+](=O)[O-])c1	76 °C
CC(C)C1OC(=Nc2ccccn2)c2c1nc1c(C(F)(F)F)cccc1c2O (stereo not drawn)	178 to 180 °C
CCOC(=O)Cc1cc(O)n[nH]1	114 to 117 °C
CCOC(=O)C(=O)Nc1ccc2c(c1)CC(=O)N2	235 to 237 °C
Cc1ccc2c(=O)c(-c3nnnn3C)cn(C)c2c1	254 to 255 °C
O=[N+]([O-])c1cc2c(cc1Sc1ccccn1)CCC2	74 °C

SMILES	melting point
Cc1cc(-n2ccnc2)c2cccc(OCc3c(Cl)ccc(S(=O)(=O)N4CCCC[C@H]4C(=O)O)c3Cl)c2n1	208 °C
COC(=O)C1=C(C)NC(=O)N(C)C1c1cccc([N+](=O)[O-])c1 (stereo not drawn)	217 to 219 °C
Nc1cccc(-n2c(=O)c(CCC(O)c3ccncc3)cc3cccnc32)c1 (stereo not drawn)	209 to 211 °C
COC(=O)c1cccc2c1cc1n2CCCC1	102 to 103 °C
O=C1N(C(c2ccccc2)c2ccccc2)c2ccccc2C12COc1cc3c(cc12)CCCO3 (stereo not drawn)	208 to 211 °C
COc1ccc2c(c1)CCCC2(N)C(=O)O (stereo not drawn)	> 250 °C
COC(=O)c1c(C(F)F)nc(C(F)(F)F)c(N=COCC2CO2)c1CC(C)C (stereo not drawn)	41 to 43 °C
CC(CCCO)C1CC=C2C3=C(CCC21C)C1(C)CCC(O)C(C)(C)C1CC3 (stereo not drawn)	203 to 208 °C
CS/C(NC(=O)c1ccc(SC)cc1)=C(\C#N)C(=O)Nc1ccc(C)cc1	173 to 175 °C
CN(CC(=O)O)C(=O)CCc1nc2c(F)c(F)cc(F)c2s1	138 to 140 °C
CSC1Oc2cc3ccccc3cc2C1=O (stereo not drawn)	118 to 120 °C
CCOc1cc(C2=NNC(=O)[C@H]3CC=CC[C@@H]23)ccc1OC (relative stereo)	163 to 166 °C
Cc1c(C(=O)O)cc(O)c2cc(-c3ccc4c(c3)C(C)(C)CCC4(C)C)ccc12	266 °C
Cc1nn(-c2c(Cl)cc(C(F)(F)F)cc2Cl)nc1CBr	98 to 100 °C
CCCN=C(N)Nc1ccnc(CCCCc2c[nH]cn2)n1	172 to 174 °C
Cc1cc2c(s1)Oc1ccc(Cl)cc1NC2=O	250 to 253 °C
Oc1ccccc1C=Nc1cccc(Cl)c1Cl	89 to 90 °C
Cc1c(S(=O)(=O)c2ccc(=O)[nH]n2)oc2ccccc12	182 to 183 °C
NC(=O)C1(N2C(=O)c3cccc(Br)c3C2=O)CCCCC1	199 to 200 °C
c1cc(C2=NOC(C3CC3)C2)ccn1 (stereo not drawn)	102 to 108 °C
CCNc1cn(-c2cccnc2)nc1Cl	89 to 90 °C
CCCCCC(=O)NC[C@H](O)CC(=O)NN	172 °C
Cc1cc(C)cc(S(=O)(=O)n2c(CCC(=O)O)cc3nc(C(F)(F)F)ccc32)c1	185 to 189 °C

SMILES	melting point
CCn1c(=O)c2c(-c3nc(C)no3)ncn2c2cccnc21	251 to 252 °C
O=C1OC(=O)c2ncc([N+](=O)[O-])cc21	85 to 91 °C
COc1cc(C)cc(C(=O)O)c1C12OC1C(=O)c1c(O)cccc1C2=O (stereo not drawn)	267 to 268 °C
CC(C)c1cccc(C(C)C)c1NC(=O)NCC1(c2ccc(N(C)C)cc2)O[C@H](C)[C@@H](C)O1	165 to 167 °C
CC(O)c1csc(S(N)(=O)=O)c1 (stereo not drawn)	164 to 167 °C
COC1CCC2C3CCC4CC(O)CCC4(C)C3CCC12C (stereo not drawn)	150 to 152 °C
CCOC(=O)c1ncn2c3cccc(Br)c3c(=O)n(C)c12	272 °C
CC1CN(c2cc3ccccc3c(=O)[nH]2)CCN1 (stereo not drawn)	164 to 167 °C
CCCCCCCCCCCCCCCCCCNc1nc(NCC(O)C2CC(C)(C)NC(C)(C)C2)nc(NCC(O)C2CC(C)(C)NC(C)(C)C2)n1 (stereo not drawn)	104 to 107 °C
O=C1NC(=O)c2c1c(-c1ccccc1)cc1[nH]c3ccc(OP(=O)(O)O)cc3c21	285 to 295 °C
C#CCCOc1cc(C=O)ccc1OC	63 to 65 °C
COC(=O)CCc1conc1-c1ccc(F)c(Br)c1	57 to 58 °C
C[C@H]([C@](O)(Cn1cncn1)c1ccc(F)cc1F)S(N)(=O)=O	195 to 197 °C
COc1ccc(C(=O)CCC2CCN(C(C)=O)CC2)cc1NC(=O)C(F)(F)F	77 to 79 °C
Cc1ccc(C(=S)c2ccc3n2CCCC3C#N)cc1 (stereo not drawn)	118 to 119 °C
Cc1cc(C2=CCN=C(CCCC(O)c3ccc(F)cc3)C2)on1 (stereo not drawn)	116 to 119 °C
CC(=O)NN(C(C)=O)[C@@H]1c2cc(C#N)ccc2OC(C)(C)[C@H]1O (relative stereo)	206 to 207 °C
C=COC(=O)n1c(SCc2ccc(C)cn2)nc2cscc21	78 to 80 °C
COC(=O)c1nccnc1Nc1ccc(Cl)cc1[N+](=O)[O-]	191 to 192 °C
CSC(=S)N1CCN(CC2=C(C)C(=O)C(C)=C(C)C2=O)CC1	133 to 135 °C
CN(C)C=C(C=O)c1ccccc1Cl	86.5 to 88.5 °C
